Laboratory results taken from US20030096379A1, “Method for producing tryptamine derivatives” (priority 2001, published 2003).

What was measured:
[1] = molecular target: T1, E. coli DH5α tryptophan synthase (TrpBA) (Escherichia coli, UniProt P0A879); type: biochemical; set-up: key: +: a clear ninhydrin-positive spot at the Rf of standard tryptophan derivatives after 16-65 h; (+): a weak spot in the product region; −: no product observed; NR: experiment not run; details: indole derivative + L-serine + PLP, 37° C., 16-65 h, ninhydrin
T1 construct: made in house; host or cells: E. coli LMG194 (pBAD) or BL-21 (pET)
T1 sequence (P0A879 whole entry): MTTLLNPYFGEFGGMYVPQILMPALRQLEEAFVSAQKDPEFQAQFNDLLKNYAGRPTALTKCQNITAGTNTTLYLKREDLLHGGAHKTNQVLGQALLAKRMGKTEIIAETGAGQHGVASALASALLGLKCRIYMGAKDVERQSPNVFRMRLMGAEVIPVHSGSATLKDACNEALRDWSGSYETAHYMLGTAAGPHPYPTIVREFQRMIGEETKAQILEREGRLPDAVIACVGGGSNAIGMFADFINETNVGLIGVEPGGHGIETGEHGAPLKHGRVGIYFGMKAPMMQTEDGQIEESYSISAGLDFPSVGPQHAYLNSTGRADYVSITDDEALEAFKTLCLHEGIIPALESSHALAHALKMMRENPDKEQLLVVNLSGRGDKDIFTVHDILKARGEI
T1 sequence (P0A877 whole entry, further chain): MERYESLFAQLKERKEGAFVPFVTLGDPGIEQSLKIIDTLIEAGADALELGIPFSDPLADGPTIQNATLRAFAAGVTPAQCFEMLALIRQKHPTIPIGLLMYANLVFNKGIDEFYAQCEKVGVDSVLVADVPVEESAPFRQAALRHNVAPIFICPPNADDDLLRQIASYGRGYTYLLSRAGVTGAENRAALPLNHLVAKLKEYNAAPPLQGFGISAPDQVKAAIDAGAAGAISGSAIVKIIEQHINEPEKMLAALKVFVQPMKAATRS

tryptophanase (TnA) = molecular target: T2, tryptophanase (TnA) (Escherichia coli, UniProt P0A853); type: biochemical, E. coli; set-up: key: +: a clear ninhydrin-positive spot at the Rf of standard tryptophan derivatives after 16-65 h; (+): a weak spot in the product region; −: no product observed; NR: experiment not run; details: indole derivative + L-serine + PLP, 37° C., 16-65 h, ninhydrin
T2 construct: made in house; host or cells: E. coli LMG194 (pBAD) or BL-21 (pET)
T2 sequence (P0A853 whole entry): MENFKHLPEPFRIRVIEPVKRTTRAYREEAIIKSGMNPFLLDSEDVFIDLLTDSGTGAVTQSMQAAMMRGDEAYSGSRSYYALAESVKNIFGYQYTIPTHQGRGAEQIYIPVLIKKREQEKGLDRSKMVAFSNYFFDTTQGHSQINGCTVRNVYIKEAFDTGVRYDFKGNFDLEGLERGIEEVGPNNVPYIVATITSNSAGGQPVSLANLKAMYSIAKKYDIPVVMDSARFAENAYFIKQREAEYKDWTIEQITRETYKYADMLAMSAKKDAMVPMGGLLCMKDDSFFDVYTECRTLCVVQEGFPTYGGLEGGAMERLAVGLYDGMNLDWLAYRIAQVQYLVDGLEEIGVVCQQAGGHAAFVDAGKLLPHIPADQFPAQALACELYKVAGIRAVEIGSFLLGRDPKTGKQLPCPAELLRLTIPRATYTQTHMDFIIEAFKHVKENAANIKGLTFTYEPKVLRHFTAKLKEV

TrpBA = molecular target: T3, TrpBA (Escherichia coli, UniProt P0A879); test: Relative rates of tryptophan derivative synthesis by HPLC, TrpBA; type: biochemical, E. coli; details: initial rate estimated by HPLC, indole = 100%, L-serine
T3 construct: made in house; host or cells: E. coli LMG194 (pBAD) or BL-21 (pET)
T3 sequence (P0A879 whole entry): as the sequence (P0A879 whole entry) above
T3 sequence (P0A877 whole entry, further chain): as the sequence (P0A877 whole entry, further chain) above
Protocol: (§1) Reaction mixtures were prepared as in Example 6 and were incubated at 37° C. Aliquots (100 μL) were removed and quenched by addition of to 300 μL of 0.5 M sodium citrate, pH 3.0 in 10% v/v acetonitrile/water in 2 ml microcentrifuge tubes. Following centrifugation for 10 min at 13,000×g, the supernatants were passed through 0.45μ membrane filters prior to HPLC analysis of 20 μL of filtrate.
(§2) TnA reactions were run with L-serine as the 3-carbon substrate.

TnA = molecular target: T4, TnA (Escherichia coli, UniProt P0A853); test: Relative rates of tryptophan derivative synthesis by HPLC, TnA; type: biochemical, E. coli; details: initial rate estimated by HPLC, indole = 100%, L-serine as the 3-carbon substrate
T4 construct: made in house; host or cells: E. coli LMG194 (pBAD) or BL-21 (pET)
T4 sequence (P0A853 whole entry): as the sequence (P0A853 whole entry) above
Protocol: as §1, with “Aliquots” for “Reaction mixtures were prepared as in Example 6 and were incubated at 37° C. Aliquots”
as §2

TrpBA and TDC1 = test: Coupled enzyme synthesis monitored by HPLC; type: biochemical; details: L-serine, PLP, pH 8.5 phosphate buffer, 37° C.
Protocol: To a solution containing L-serine (25 μmol), pyridoxal phosphate (0.05 μmol) and TrpBA (0.02 to 1.5 units, depending on the substrate), TDC1 (0.2 mL 0.6 units) and KPi buffer (0.05 mmol, pH 7.5) in a volume of 0.8 mL were added […] of 5 mM indole derivative in 20% v/v ethanol/water. The mixture was incubated at 37° C. and aliquots were quenched and analyzed as described for Example 8. In cases where tryptamine and/or tryptophan standards were not available, peaks were collected for mass spectral analysis. Electrospray mass spectral analyses were performed.
Mixtures containing indole, L-serine, PLP and TDC1 were incubated in pH 8.5 phosphate buffer, analyzing aliquots by HPLC, as described in Example 12.
The procedure used in Example 24 was carried out by substituting indole with 2-methylindole, 4-hydroxymethylindole, 5-methoxy-, 5-hydroxymethyl-, 5-methoxycarbonyl, and 5,6-dimethoxyindole.

pkAAAD [2] = molecular target: T5, pkAAAD (Sus scrofa, UniProt P80041); test: pkAAAD-catalyzed decarboxylation rate ratio by HPLC; type: biochemical, pig; details: HPLC of acid-quenched aliquots, ratio to 1
T5 construct: Frozen tissue was partially thawed in lysis buffer, then it was extracted and partially purified; from tissue; host or cells: pig kidney
T5 sequence (P80041 1-486): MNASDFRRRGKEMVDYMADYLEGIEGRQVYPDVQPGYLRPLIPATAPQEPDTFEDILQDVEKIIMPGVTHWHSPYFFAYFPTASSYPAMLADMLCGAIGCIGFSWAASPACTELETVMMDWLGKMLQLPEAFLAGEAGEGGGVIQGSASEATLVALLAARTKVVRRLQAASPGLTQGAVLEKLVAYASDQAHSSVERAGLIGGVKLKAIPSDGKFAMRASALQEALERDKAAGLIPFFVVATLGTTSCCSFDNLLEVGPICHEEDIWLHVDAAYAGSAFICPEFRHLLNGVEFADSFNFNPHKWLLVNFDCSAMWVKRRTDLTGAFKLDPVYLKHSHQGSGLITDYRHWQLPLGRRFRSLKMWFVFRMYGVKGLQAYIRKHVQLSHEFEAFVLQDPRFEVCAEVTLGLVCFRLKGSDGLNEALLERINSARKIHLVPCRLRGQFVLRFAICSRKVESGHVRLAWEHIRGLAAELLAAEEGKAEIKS
Protocol: Tryptophan synthase activity was assayed by monitoring the increase in absorbance at 290 nm of a mixture containing serine, indole and PLP (Higgins, W., et al., Biochemistry, 1979, 18, 4827). TnA-catalyzed tryptophan synthesis was also measured by the 290 nm assay, while the tryptophan lyase reaction rate was measured by monitoring the reduction in NADH in reaction mixtures containing L-tryptophan and lactate dehydrogenase, indicating the amount of pyruvate released. Tryptophan decarboxylase was assayed colorimetrically by monitoring the sabsorbance at 580 nm produced by serotonin (AAADs) or tryptamine (TDCs) following treatment of reaction aliquots with Ehrlich's reagent (4-N,N-(dimethyl)aminobenzaldehyde in ethanolic HCl; Nakazawa, H.; Kumagi, H.; Yamada, H. Biochem Biophys. Res. Commun., 1974, 61, 75-82). Serotonin could be detected with approximately 5-fold higher sensitivity by this method as compared with tryptamine. The Ehrlich reagent assay using a microtiter plate format for simultaneous analysis of multiple enzyme samples may also be used. HPLC analysis was performed on acid-quenched reaction aliquots by using a base-deactivated C8 reversed-phase support (Shandon Hypersil BD8). […]

pkAAAD [3] = molecular target: T5, pkAAAD; details: literature (Sourkes 1987), ratio :1; cited from earlier work

| Structure (SMILES) | TrpBA (tryptophan product spot, TLC analysis) [1] | TnA (tryptophan product spot, TLC analysis) (tryptophanase (TnA)) | Relative rate (TrpBA) (TrpBA) [%] | Relative Rate (TnA) (TnA) [%] | formation of tryptophan derivative and tryptamine (HPLC peaks) (TrpBA and TDC1) | rate ratio of DOPA decarboxylation relative to that of L-5-hydroxytryptophan (pkAAAD [2]) | accepted ratio of DOPA to L-5-hydroxytryptophan decarboxylation (pkAAAD [3]) |
| --- | --- | --- | --- | --- | --- | --- | --- |
| OCc1ccc2[nH]ccc2c1 [5-hydroxymethyl-, indole-5-methanol] | + | + | 0.03 | 1.2 | a second peak representing formation of tryptamine | – | – |
| N[C@@H](Cc1ccc(O)c(O)c1)C(=O)O [DOPA] | – | – | – | – | – | 4.5 | approximately 5 |
